What was measured:
NLuc::LmxCLK1 [1] = target: T1, NLuc::LmxCLK1 (Leishmania mexicana, UniProt E9AMP2); assay: In vitro BRET with purified NLuc::LmxCLK1; assay type: binding
Procedure: (§1) in vitro BRET used purified NLuc-LmxCLK1 in Kinase Buffer (50 mM HEPES, 1 mM EGTA, 10 mM MgCl^2, 2 mM DTT and 0.01% Tween-20) aliquoted into 96-well plates (Greiner #655904). In cell BRET assays used engineered L. mexicana (promastigotes or intramacrophage amastigotes) expressing NLuc-LmxCLK1 in cell media aliquoted into 96-well plates (Greiner, #655083). For tracer titration experiments, BRET probes were serially diluted from 100% DMSO stocks – first in 100% DMSO to 100x final assay concentration, and then in Tracer Dilution Buffer (TDB - 12.5 mM HEPES, pH 7.5; 31.25% PEG 400) to 20x the final assay concentration. Serially diluted probes (5 µL) were added to 85 µL of cells in culture media or 85 µL of purified protein. Final well volumes were adjusted to 100 µL with sterile Opti-MEM™ I Reduced Serum Medium (Thermo-Scientific) – for wells containing cells; or Kinase Buffer - for wells containing purified protein. For tracer displacement assays, samples were prepared as above, but final volume was brought to 100 µL by addition of vehicle or serially-diluted test compounds. Final DMSO concentration in these assays was 1%. Plates were incubated for 30 min at 25 °C (purified protein and promastigotes) or 34 °C (intramacrophage amastigotes), and 50 µL of Promega cocktail containing furimazine and NLuc extracellular inhibitor (catalog #N2161) were added to each well. Light emissions at 460+10 nm (BRET donor) and at 610+20 nm (BRET acceptor) were sequentially recorded (integration time = 0.5 s, gain = 3600) using a luminometer (BMG LABTECH Clariostar or Biotek Synergy HT). BRET values are reported in milli-BRET (mBRET) units (mBU), obtained by dividing the acceptor luminescence by the donor luminescence and multiplying the result by a factor of 1,000. BRET values were converted to blank-corrected probe occupancies (%) according to equation [1]: (1) Probeoccupancy(%)=X−Z/Y−Z×100 where X = mBRET value in the presence of the test compound and the probe, Y = mBRET value in the presence of probe only, and Z = mBRET value in the absence of probe and test compound.
To determine apparent dissociation constants from saturation binding curves, mBRET values were plotted as a function of probe concentration, and probe affinity values (KD) were determined using the hyperbolic dose-response equation for binding to a single site available in GraphPad Prism (v. 9.1.0).

NLuc::LmxCLK1 [2] = target: T1, NLuc::LmxCLK1; assay: cell-based; assay type: cell-based
Method in brief: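 NanoBRET tracer displacement in live cells expressing NLuc-tagged CLK1, test compounds at 10 µM fixed, 1% DMSO final. Acceptor/donor emission (610/460 nm) ratio gives mBRET, converted to blank-corrected probe occupancy (%); probe KD from single-site saturation binding fits.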

NLuc::LmxCLK1 [3] = target: T1, NLuc::LmxCLK1; assay: In-cell BRET target engagement in intracellular amastigotes expressing NLuc::LmxCLK1; assay type: cell-based
Procedure: (§2) L. mexicana (strain MNYC/BZ/62/M379) promastigotes were cultivated in medium 199 (M199) (Earle’s Salts - Gibco) supplemented with 10% (v/v) heat-inactivated fetal calf serum (HIFCS – Cultilab) and 1% Penicillin/Streptomycin solution (Sigma-Aldrich) at 26 °C. Phenotypic drug response assays in null mutant and point-mutation mutant lines were performed in HOMEM supplemented with 10% (v/v) heat-inactivated fetal calf serum (HIFCS – Gibco). THP-1 monocytes were differentiated in adherent macrophages with 50 ng of PMA for 72 h at 37 °C and 5% CO2 before infection with stationary phase promastigotes (ratio 10 promastigotes:1 macrophage) for 6 h, followed by washing to remove non-internalized Leishmania. Infected macrophages were incubated at 34 °C and 5% CO2 for 48 h in RPMI (Gibco) supplemented with 10% HIFCS and 1% Penicillin/Streptomycin solution.
as §1

LmxCLK1 = target: T2, LmxCLK1 (Leishmania mexicana, UniProt E9AMP2); assay: HTRF (TR-FRET) enzymatic inhibition assay; assay type: biochemical; conditions: IC50 enzymatic inhibition of LmxCLK1, purified LmxCLK1, 30-min pre-incubation, 66 µM ATP
T2 sequence (E9AMP2 1-422): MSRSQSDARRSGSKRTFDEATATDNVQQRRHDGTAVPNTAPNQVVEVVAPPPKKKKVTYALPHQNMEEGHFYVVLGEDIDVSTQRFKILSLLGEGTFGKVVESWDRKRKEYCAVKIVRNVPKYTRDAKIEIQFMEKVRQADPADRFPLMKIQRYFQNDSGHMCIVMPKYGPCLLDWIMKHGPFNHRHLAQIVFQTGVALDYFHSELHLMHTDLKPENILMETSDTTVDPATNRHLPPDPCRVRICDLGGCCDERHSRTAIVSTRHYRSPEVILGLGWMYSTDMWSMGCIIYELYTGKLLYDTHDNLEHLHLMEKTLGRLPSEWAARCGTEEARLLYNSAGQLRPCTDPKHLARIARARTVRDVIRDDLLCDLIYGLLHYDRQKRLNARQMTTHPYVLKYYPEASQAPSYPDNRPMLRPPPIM
Procedure: The enzymatic activity of full-length LmxCLK1 was monitored using a homogenous time-resolved fluorescence (HTRF)-based assay (HTRF KinEASE-STK S3 kit, Cisbio - catalog #62ST3PEC). For IC50 value determination, the data from two independent experiments performed in duplicate were fitted to the sigmoidal dose-response (variable slope) equation available in GraphPad Prism (v. 9.1.0). Detailed information for IC50 determination can be found in the Supplementary Information. […]
min at 4 °C. The supernatants were loaded onto an immobilized metal affinity chromatography (IMAC) […]
column (5 mL HisTrap FF Crude, GE Healthcare) and washed in Binding Buffer containing 30 mM imidazole.
Proteins were eluted in Binding Buffer with 300 mM imidazole. To remove the N-terminal 6xHis-tag […]
introduced during cloning (see above), proteins were incubated with TEV protease during dialysis […]
overnight at 4 °C into Gel Filtration Buffer (20 mM HEPES, 500 mM NaCl, 5% glycerol, 0.5 mM TCEP).
Recombinant proteins were further purified using reverse affinity chromatography on Ni-Sepharose […]
followed by gel filtration (Superdex 200 16/60, GE Healthcare), and concentrated using 10 kDa molecular […]
weight cut-off centrifugal concentrators (Millipore). LmxCLK1 (CQMED clone ID LmxCLK1-cb001) and […]
NLuc-LmxCLK1 (CQMED clone ID LmxCLK1-cb021) proteins were stored at -80 °C for in vitro biochemical […]
assays at 0.5 mg/mL and 0.7 mg/mL, respectively, measured by UV absorbance with a NanoDrop […]
spectrophotometer (Thermo Scientific), using the calculated molecular weight and estimated extinction […]
Purified proteins were further analyzed by LC-ESI-MS in a XEVO G2 Sx Q-ToF (Waters). Expected intact […]
masses for LmxCLK1 (CQMED clone ID LmxCLK1-cb001) and NLuc-LmxCLK1 (CQMED clone ID LmxCLK1- […]
cb021) were: 48,791.14 Da and 68,411.71 Da, respectively.
We monitored the activity of recombinantly produced full-length LmxCLK1 (CQMED clone ID LmxCLK1- […]
cb001) using a commercially-available homogenous time-resolved fluorescence (HTRF)-based assay (HTRF […]
KinEASE-STK S3 kit, Cisbio - catalog #62ST3PEC). Assay development included establishing reaction […]
parameters (optimal enzyme concentration, ATP concentration and reaction time).
(15-point, 3-fold serial dilution and a highest final assay concentration of 10 µM) prior to transfer (100 nL) […]
to a black, 384-well, round bottom, low-volume plate (Corning catalog #4514) containing a mixture of […]
LmxCLK1 and peptide substrate in kinase buffer using an automated liquid transferring system (CYBIO […]
FeliX®, Analytik Jena, Jena, Germany). […]
started by the addition of ATP and allowed to proceed for 75 min at 30 °C. Final concentrations for reaction […]
components were: 6 nM LmxCLK1, 66 µM ATP (10× KM,ATP), 1 µM peptide (STK Substrate 3-biotin, Cisbio).
All components were prepared in 1× Enzymatic Buffer (Cisbio) supplemented with 5 mM MgCl2, 1 mM […]
DTT, 0.01% Tween-20. The reaction was stopped by the addition of Detection Buffer containing EDTA, […]
Fluorescence signal was measured using a CLARIOstar microplate reader (BMG LABTECH) with excitation […]
at 330 nm, emission at 665 nm (acceptor) and 620 nm (donor), integration delay 60 μs and integration […]
time 400 μs. All reactions were done in duplicate and two independent experiments were performed.
Enzyme activity was expressed as the background-corrected HTRF ratio of the acceptor and donor […]
emission signals according to equation [1]:
(also on this page, place not known: imi dazole. Ni -Sepharose background -corrected (665/620)=3Acceptor!!"#$ −backgroundD.10,000 Downloaded from http://pubs.acs.org/aidcbc/article-supplement/3662943/pdf/id5c00610_si_001/ by guest on 07 August 2026) […]
where background is the background fluorescence obtained in the absence of enzyme (blank).
To determine IC50 values, the background-corrected HTRF ratio was plotted as a function of test

[4] = system: L. mexicana promastigotes; assay: Promastigote viability (Alamar Blue/resazurin); assay type: cell-based; conditions: Leishmania mexicana; 48 h compound exposure; read-out: EC50 promastigote viability
Procedure: Next, we evaluated GZD824 ability to reduce the viability of L. mexicana promastigotes by monitoring the reduction of resazurin (Alamar Blue).[31]
as §2
For evaluation of drug effect on promastigote and uninfected macrophage viability, cells were cultivated in the presence of test compounds for 24 h and incubated with 10% AlamarBlue™ Cell Viability Reagent (ThermoFisher) for 24 h before measuring fluorescence at λex 540 nm/λem 590 nm. Untreated cells (1% DMSO) were set as 100 % viable cells. Intracellular amastigotes were treated with compounds for 48 h. Slides with paraformaldehyde-fixed and DAPI-stained cells were imaged on a Zeiss AxioImager microscope – at least 200 macrophages per drug concentration and DMSO control. Experiments were performed in duplicate. The total number of amastigotes was normalized by the number of macrophages counted. For EC50 determination, the data was fitted to the sigmoidal dose-response (variable slope) equation in GraphPad Prism (v.9.1.0).

## Cc1ccc(C(=O)Nc2ccc(CN3CCN(CCCNC(=O)CCC4=[N+]5C(=Cc6ccc(-c7ccc[nH]7)n6[B-]5(F)F)C=C4)CC3)c(C(F)(F)F)c2)cc1C#Cc1cnc2[nH]ncc2c1 [SV363]
NLuc::LmxCLK1 [1]
  EC50: > 1000 nM

## Cc1ccc(C(=O)Nc2ccc(CN3CCN(CCCNC(=O)c4ccc(C(=O)O)c(-c5c6ccc(=O)cc-6oc6cc(O)ccc56)c4)CC3)c(C(F)(F)F)c2)cc1C#Cc1cnc2[nH]ncc2c1 [SV366]
NLuc::LmxCLK1 [1]; 0.5 h, read-out: EC80 tracer titration, purified NLuc-LmxCLK1
  EC80: 59.4 nM
NLuc::LmxCLK1 [1]; read-out: EC50 tracer titration, purified NLuc::LmxCLK1, BRET probe binding
  EC50: 8.4 nM
NLuc::LmxCLK1 [1]; saturation binding to purified NLuc::LmxCLK1
  Kd: 5.9 nM
NLuc::LmxCLK1 [2]; 0.5 h, read-out: EC80 tracer titration in promastigotes
  EC80: 1050 nM
NLuc::LmxCLK1 [2]; read-out: EC50 tracer titration in promastigotes, live promastigotes
  EC50: 383 nM
NLuc::LmxCLK1 [3]; 0.5 h, read-out: EC80 tracer titration in intracellular amastigotes
  EC80: 200 nM
NLuc::LmxCLK1 [3]; read-out: EC50 tracer titration in intracellular amastigotes, infected macrophages
  EC50: 72.6 nM
NLuc::LmxCLK1 [3]; tracer titration
  Lower EC50 in intracellular amastigotes compared to promastigotes: approximately 5 fold

## CN[C@@H]1C[C@H]2O[C@@](C)([C@@H]1OC)n1c3ccccc3c3c4c(c5c6ccccc6n2c5c31)C(=O)NC4 [Staurosporine]
LmxCLK1
  IC50: 460 nM
[4]
  EC50: 900 nM

From PMC7619385 (ACS infectious diseases, 2025)
